Among the data in publication PMC7758422, “Design, Synthesis, and Antitumor Activities Study of Stapled A4K14-Citropin 1.1 Peptides” (Frontiers in Chemistry, 2020) are ring closure, overall yield values, retold here.

The data set in a line: on-resin all-hydrocarbon stapling by ring-closing metathesis of S5/S5 (i,i+4) or R8/S5 (i,i+7), Grubbs first-generation catalyst (0.45 mmol per 0.15 mmol resin, 3 equiv), then TFA/TIPS/phenol/H2O cleavage and RP-HPLC. Particulars: the molecule shown is the open-chain precursor, 25.0 °C, 4.0 h, 36 steps.
The mark [1] stands for this setting: 21-membered ring, 1,2-dichloroethane.

The structures appear in SMILES notation.

As to `C=CCCC[C@](C)(NC(=O)[C@H](C)NC(=O)[C@H](Cc1ccccc1)NC(=O)[C@H](CC(C)C)NC(=O)CNC(C)=O)C(=O)N[C@H](C(=O)N[C@@H](CCCCNC(=O)OC(C)(C)C)C(=O)N[C@@H](CCCCNC(=O)OC(C)(C)C)C(=O)N[C@@](C)(CCCC=C)C(=O)N[C@@H](C)C(=O)N[C@@H](COC(C)(C)C)C(=O)N[C@H](C(=O)N[C@H](C(=O)N[C@@H](CCCCNC(=O)OC(C)(C)C)C(=O)NCC(=O)N[C@@H](CC(C)C)C(N)=O)[C@@H](C)CC)C(C)C)[C@@H](C)CC`, under setting [1], the ring closure, overall yield was determined as 62 % yield.

Take `C=CCCC[C@](C)(NC(=O)[C@@H](NC(=O)[C@H](C)NC(=O)[C@H](Cc1ccccc1)NC(=O)[C@H](CC(C)C)NC(=O)CNC(C)=O)C(C)C)C(=O)N[C@@H](CCCCNC(=O)OC(C)(C)C)C(=O)N[C@@H](CCCCNC(=O)OC(C)(C)C)C(=O)N[C@H](C(=O)N[C@@](C)(CCCC=C)C(=O)N[C@@H](COC(C)(C)C)C(=O)N[C@H](C(=O)N[C@H](C(=O)N[C@@H](CCCCNC(=O)OC(C)(C)C)C(=O)NCC(=O)N[C@@H](CC(C)C)C(N)=O)[C@@H](C)CC)C(C)C)C(C)C`: the ring closure, overall yield under setting [1] turned out to be 71 % yield.

With `C=CCCC[C@](C)(NC(=O)[C@H](CCCCNC(=O)OC(C)(C)C)NC(=O)[C@H](CCCCNC(=O)OC(C)(C)C)NC(=O)[C@@H](NC(=O)[C@@H](NC(=O)[C@H](C)NC(=O)[C@H](Cc1ccccc1)NC(=O)[C@H](CC(C)C)NC(=O)CNC(C)=O)C(C)C)[C@@H](C)CC)C(=O)N[C@@H](C)C(=O)N[C@@H](COC(C)(C)C)C(=O)N[C@H](C(=O)N[C@@](C)(CCCC=C)C(=O)N[C@@H](CCCCNC(=O)OC(C)(C)C)C(=O)NCC(=O)N[C@@H](CC(C)C)C(N)=O)C(C)C`, the ring closure, overall yield under setting [1] was determined as 66 % yield.

For the compound `C=CCCCCCC[C@@](C)(NC(=O)[C@@H](NC(=O)[C@H](C)NC(=O)[C@H](Cc1ccccc1)NC(=O)[C@H](CC(C)C)NC(=O)CNC(C)=O)C(C)C)C(=O)N[C@@H](CCCCNC(=O)OC(C)(C)C)C(=O)N[C@@H](CCCCNC(=O)OC(C)(C)C)C(=O)N[C@H](C(=O)N[C@@H](C)C(=O)N[C@@H](COC(C)(C)C)C(=O)N[C@H](C(=O)N[C@@](C)(CCCC=C)C(=O)N[C@@H](CCCCNC(=O)OC(C)(C)C)C(=O)NCC(=O)N[C@@H](CC(C)C)C(N)=O)C(C)C)C(C)C`, the ring closure, overall yield (33-membered ring, 1,2-dichloroethane) was found to be 62 % yield.
